Measured values published in US12077503B2, “Substituted cyclic amides and their use as herbicides” (FMC CORPORATION, priority 2015, dated 2024).

Experiments:
Assay in all cases: Test C preemergence
Format in all cases: in vivo
[1] = test system: waterhemp (common waterhemp, Amaranthus rudis); conditions: for Plant response rating, Waterhemp: scale 0 to 100, 0 no effect, 100 complete control
In short: (§1)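 Seeds in loam-sand soil treated preemergence, or plants in peat-based medium sprayed postemergence at 2–18 cm (1- to 4-leaf stage), with compound in a non-phytotoxic solvent mixture containing surfactant. Greenhouse-held 13–15 d, then visually rated against controls on a 0–100 scale (0 = no effect, 100 = complete control); dash = not tested.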

[2] = test system: nutsedge, yellow (yellow nutsedge, Cyperus esculentus); conditions: for Plant response rating, Nutsedge, Yellow: scale 0 to 100, 0 no effect, 100 complete control
In short: as §1

[3] = test system: pigweed (Amaranthus retroflexus); conditions: for Plant response rating, Pigweed: scale 0 to 100, 0 no effect, 100 complete control
In short: as §1

[4] = test system: blackgrass (Alopecurus myosuroides); conditions: for Plant response rating, Blackgrass: scale 0 to 100, 0 no effect, 100 complete control
In short: as §1

[5] = test system: oilseed rape (Brassica napus); conditions: for Plant response rating, Oilseed Rape: scale 0 to 100, 0 no effect, 100 complete control
In short: as §1

[6] = test system: barnyardgrass (Echinochloa crus-galli); conditions: for Plant response rating, Barnyardgrass: scale 0 to 100, 0 no effect, 100 complete control
In short: as §1

corn (Zea mays) = conditions: for Plant response rating, Corn: scale 0 to 100, 0 no effect, 100 complete control
In short: as §1

[7] = test system: velvetleaf (Abutilon theophrasti); conditions: for Plant response rating, Velvetleaf: scale 0 to 100, 0 no effect, 100 complete control
In short: as §1

[8] = test system: Galium (catchweed bedstraw, Galium aparine); conditions: for Plant response rating, Galium: scale 0 to 100, 0 no effect, 100 complete control
In short: as §1

[9] = test system: ryegrass, Italian (Italian ryegrass, Lolium multiflorum); conditions: for Plant response rating, Ryegrass, Italian: scale 0 to 100, 0 no effect, 100 complete control
In short: as §1

soybean (Glycine max) = conditions: for Plant response rating, Soybean: scale 0 to 100, 0 no effect, 100 complete control
In short: as §1

[10] = test system: johnsongrass (Sorghum halepense); conditions: for Plant response rating, Johnsongrass: scale 0 to 100, 0 no effect, 100 complete control
In short: as §1

[11] = test system: ragweed (common ragweed, Ambrosia elatior); conditions: for Plant response rating, Ragweed: scale 0 to 100, 0 no effect, 100 complete control
In short: as §1

[12] = test system: wheat (winter wheat, Triticum aestivum); conditions: for Plant response rating, Wheat: scale 0 to 100, 0 no effect, 100 complete control
In short: as §1

[13] = test system: morningglory (Ipomoea coccinea); conditions: for Plant response rating, Morningglory: scale 0 to 100, 0 no effect, 100 complete control
In short: as §1

[14] = test system: foxtail, giant (giant foxtail, Setaria faberii); conditions: for Plant response rating, Foxtail, Giant: scale 0 to 100, 0 no effect, 100 complete control
In short: as §1

[15] = test system: crabgrass, large (large crabgrass, Digitaria sanguinalis); conditions: for Plant response rating, Crabgrass, Large: scale 0 to 100, 0 no effect, 100 complete control
In short: as §1

[16] = 31 g ai/ha, 0 is no effect, 100 is complete control

CN1CC(c2cc(F)cc(F)c2)C(C(=O)Nc2ccc(F)c(F)c2F)C1=O (centres unmarked) [Compound 646]
30: Plant response rating (scale of 0 to 100), Ryegrass, Italian [9, 16] | Plant response rating, Ragweed ([11]; 62 g ai/ha)
15: Plant response rating (scale of 0 to 100), Oilseed Rape [5, 16] | Plant response rating (scale of 0 to 100), Velvetleaf [7, 16]
70: Plant response rating, Ragweed ([11]; 250 g ai/ha)
55: Plant response rating, Velvetleaf ([7]; 125 g ai/ha)
80: Plant response rating (scale of 0 to 100), Blackgrass [4, 16] | Plant response rating, Blackgrass ([4]; 62 g ai/ha) | Plant response rating, Oilseed Rape ([5]; 62 g ai/ha) | Plant response rating, Ryegrass, Italian ([9]; 125 g ai/ha) | Plant response rating, Wheat ([12]; 62 g ai/ha)
25: Plant response rating, Velvetleaf ([7]; 62 g ai/ha)
95: Plant response rating, Barnyardgrass ([6]; 62 g ai/ha) | Plant response rating (scale of 0 to 100), Foxtail, Giant [14, 16] | Plant response rating, Foxtail, Giant ([14]; 62 g ai/ha) | Plant response rating, Foxtail, Giant ([14]; 125 g ai/ha) | Plant response rating (scale of 0 to 100), Crabgrass, Large [15, 16] | Plant response rating, Crabgrass, Large ([15]; 62 g ai/ha)
20: Plant response rating, Ryegrass, Italian ([9]; 62 g ai/ha) | Plant response rating (scale of 0 to 100), Ragweed [11, 16]
98: Plant response rating, Blackgrass ([4]; 250 g ai/ha) | Plant response rating, Barnyardgrass ([6]; 125 g ai/ha) | Plant response rating, Barnyardgrass ([6]; 250 g ai/ha) | Plant response rating, Foxtail, Giant ([14]; 250 g ai/ha) | Plant response rating, Crabgrass, Large ([15]; 125 g ai/ha)
60: Plant response rating, Waterhemp ([1]; 62 g ai/ha) | Plant response rating, Velvetleaf ([7]; 250 g ai/ha) | Plant response rating, Ragweed ([11]; 125 g ai/ha)
90: Plant response rating, Oilseed Rape ([5]; 250 g ai/ha) | Plant response rating (scale of 0 to 100), Barnyardgrass [6, 16] | Plant response rating (scale of 0 to 100), Galium [8, 16] | Plant response rating, Galium ([8]; 62 g ai/ha) | Plant response rating, Galium ([8]; 125 g ai/ha) | Plant response rating, Ryegrass, Italian ([9]; 250 g ai/ha) | Plant response rating, Johnsongrass ([10]; 250 g ai/ha) | Plant response rating, Wheat ([12]; 250 g ai/ha)
45: Plant response rating, Corn (corn (Zea mays); 62 g ai/ha)
65: Plant response rating (scale of 0 to 100), Waterhemp [1, 16] | Plant response rating, Pigweed ([3]; 125 g ai/ha) | Plant response rating, Corn (corn (Zea mays); 125 g ai/ha)
35: Plant response rating, Nutsedge, Yellow ([2]; 250 g ai/ha) | Plant response rating (scale of 0 to 100), Corn (corn (Zea mays); [16]) | Plant response rating (scale of 0 to 100), Johnsongrass [10, 16] | Plant response rating (scale of 0 to 100), Wheat [12, 16]
85: Plant response rating, Waterhemp ([1]; 250 g ai/ha) | Plant response rating, Blackgrass ([4]; 125 g ai/ha) | Plant response rating, Oilseed Rape ([5]; 125 g ai/ha) | Plant response rating, Johnsongrass ([10]; 125 g ai/ha) | Plant response rating, Wheat ([12]; 125 g ai/ha)
10: Plant response rating, Pigweed ([3]; 62 g ai/ha) | Plant response rating, Soybean (soybean (Glycine max); 125 g ai/ha) | Plant response rating, Morningglory ([13]; 250 g ai/ha)
40: Plant response rating, Johnsongrass ([10]; 62 g ai/ha)
75: Plant response rating, Waterhemp ([1]; 125 g ai/ha) | Plant response rating, Pigweed ([3]; 250 g ai/ha) | Plant response rating, Corn (corn (Zea mays); 250 g ai/ha)
100: Plant response rating, Galium ([8]; 250 g ai/ha) | Plant response rating, Crabgrass, Large ([15]; 250 g ai/ha)
0: Plant response rating (scale of 0 to 100), Nutsedge, Yellow [2, 16] | Plant response rating, Nutsedge, Yellow ([2]; 62 g ai/ha) | Plant response rating, Nutsedge, Yellow ([2]; 125 g ai/ha) | Plant response rating (scale of 0 to 100), Pigweed [3, 16] | Plant response rating (scale of 0 to 100), Soybean (soybean (Glycine max); [16]) | Plant response rating, Soybean (soybean (Glycine max); 62 g ai/ha) | Plant response rating, Soybean (soybean (Glycine max); 250 g ai/ha) | Plant response rating (scale of 0 to 100), Morningglory [13, 16] | Plant response rating, Morningglory ([13]; 62 g ai/ha) | Plant response rating, Morningglory ([13]; 125 g ai/ha)
